Source: PubChem BioAssay AID2060894 (Molecular Pharmacology Branch, DTP, NCI, 2025)
Values belong to the compound of their own block, whether it stands above or below them.

Test system: K12877-001-R-J1-PDC complex spheroid viability
Assay: Anticancer human tumor K12877-001-R-J1-PDC patient-derived lung adenocarcinoma cell line growth inhibition [RAS]
Conditions: for IC50: curve of first compound; for viability, T/C: stronger effect = lower value
How it was run: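 Tumour cells grown as complex spheroids with HUVEC endothelial cells and mesenchymal stem cells, treated with RAS pathway inhibitor combinations. Each agent spans half-log steps from near clinical Cmax, or 10 microM where Cmax is unknown.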

[1] = second compound 0.00316 µM, first compound 0.0316 µM
[2] = second compound 0.00316 µM, first compound 0.1 µM
[3] = second compound 0.00316 µM, first compound 0.316 µM
[4] = second compound 0.00316 µM, first compound 1 µM
[5] = second compound 0.00316 µM, first compound 3.16 µM
[6] = second compound 0.00316 µM, first compound 10 µM
[7] = second compound 0.01 µM, first compound 0.0316 µM
[8] = second compound 0.01 µM, first compound 0.1 µM
[9] = second compound 0.01 µM, first compound 0.316 µM
[10] = second compound 0.01 µM, first compound 1 µM
[11] = second compound 0.01 µM, first compound 3.16 µM
[12] = second compound 0.01 µM, first compound 10 µM
[13] = second compound 0.0316 µM, first compound 0.0316 µM
[14] = second compound 0.0316 µM, first compound 0.1 µM
[15] = second compound 0.0316 µM, first compound 0.316 µM
[16] = second compound 0.0316 µM, first compound 1 µM
[17] = second compound 0.0316 µM, first compound 3.16 µM
[18] = second compound 0.0316 µM, first compound 10 µM
[19] = second compound 0.1 µM, first compound 0.0316 µM
[20] = second compound 0.1 µM, first compound 0.1 µM
[21] = second compound 0.1 µM, first compound 0.316 µM
[22] = second compound 0.1 µM, first compound 1 µM
[23] = second compound 0.1 µM, first compound 3.16 µM
[24] = second compound 0.1 µM, first compound 10 µM
[25] = second compound 0.316 µM, first compound 0.0316 µM
[26] = second compound 0.316 µM, first compound 0.1 µM
[27] = second compound 0.316 µM, first compound 0.316 µM
[28] = second compound 0.316 µM, first compound 1 µM
[29] = second compound 0.316 µM, first compound 3.16 µM
[30] = second compound 0.316 µM, first compound 10 µM
[31] = second compound 1 µM, first compound 0.0316 µM
[32] = second compound 1 µM, first compound 0.1 µM
[33] = second compound 1 µM, first compound 0.316 µM
[34] = second compound 1 µM, first compound 1 µM
[35] = second compound 1 µM, first compound 3.16 µM
[36] = second compound 1 µM, first compound 10 µM
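Further: spheroids exposed to agents for one week before readout.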
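Wherever viability, T/C is given: tumour cells co-cultured with HUVEC and mesenchymal stem cells in spheroids.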

- IC50 (second compound 0.00316 µM): 4030 nM
- IC50 (second compound 0.01 µM): 1190 nM
- IC50 (second compound 0.0316 µM): 1640 nM
- IC50 (second compound 0.1 µM): 1290 nM
- IC50 (second compound 0.316 µM): 710 nM
- IC50 (second compound 1 µM): 745 nM
SMILES: CC1(O)CCCC1n1c(=O)c(C(F)F)cc2cnc(NC3CCN(S(C)(=O)=O)CC3)nc21 (centres undefined) + C=CC(=O)N1CCN(c2nc(OCC3CCCN3C)nc3c(F)c(-c4nc(N)cc(C)c4C(F)(F)F)c(Cl)cc23)C(C)C1
- viability, T/C [1]: 105%
- viability, T/C [2]: 79.9%
- viability, T/C [3]: 68.2%
- viability, T/C [4]: 64%
- viability, T/C [5]: 71.9%
- viability, T/C [6]: 2.13%
- viability, T/C [7]: 96.1%
- viability, T/C [8]: 75.3%
- viability, T/C [9]: 49.5%
- viability, T/C [10]: 68.7%
- viability, T/C [11]: 34.4%
- viability, T/C [12]: 2.51%
- viability, T/C [13]: 88.1%
- viability, T/C [14]: 84.9%
- viability, T/C [15]: 56.4%
- viability, T/C [16]: 63.1%
- viability, T/C [17]: 43.9%
- viability, T/C [18]: 2.83%
- viability, T/C [19]: 94.5%
- viability, T/C [20]: 78.7%
- viability, T/C [21]: 59.2%
- viability, T/C [22]: 53.1%
- viability, T/C [23]: 48.4%
- viability, T/C [24]: 2.13%
- viability, T/C [25]: 102%
- viability, T/C [26]: 71.1%
- viability, T/C [27]: 58.7%
- viability, T/C [28]: 45.3%
- viability, T/C [29]: 41.2%
- viability, T/C [30]: 2.43%
- viability, T/C [31]: 95%
- viability, T/C [32]: 80.7%
- viability, T/C [33]: 43.7%
- viability, T/C [34]: 60.7%
- viability, T/C [35]: 42.2%
- viability, T/C [36]: 2.22%

- IC50 (second compound 0.00316 µM): 1690 nM
- IC50 (second compound 0.01 µM): 1430 nM
- IC50 (second compound 0.0316 µM): 1580 nM
- IC50 (second compound 0.1 µM): 1400 nM
- IC50 (second compound 0.316 µM): 1480 nM
- IC50 (second compound 1 µM): 1440 nM
SMILES: CCC(CC)c1cc(NC2CCC(N)C2)n2nccc2n1 (centres undefined) + C=CC(=O)N1CCN(c2nc(OCC3CCCN3C)nc3c(F)c(-c4nc(N)cc(C)c4C(F)(F)F)c(Cl)cc23)C(C)C1
- viability, T/C [1]: 97%
- viability, T/C [2]: 94.7%
- viability, T/C [3]: 98%
- viability, T/C [4]: 89.6%
- viability, T/C [5]: 2.45%
- viability, T/C [6]: 0.94%
- viability, T/C [7]: 91.2%
- viability, T/C [8]: 99.4%
- viability, T/C [9]: 93.2%
- viability, T/C [10]: 71.3%
- viability, T/C [11]: 2.11%
- viability, T/C [12]: 0.91%
- viability, T/C [13]: 99.3%
- viability, T/C [14]: 95.7%
- viability, T/C [15]: 86.2%
- viability, T/C [16]: 81.5%
- viability, T/C [17]: 2.25%
- viability, T/C [18]: 1.53%
- viability, T/C [19]: 85.2%
- viability, T/C [20]: 78.3%
- viability, T/C [21]: 83.4%
- viability, T/C [22]: 70%
- viability, T/C [23]: 1.91%
- viability, T/C [24]: 0.93%
- viability, T/C [25]: 88.3%
- viability, T/C [26]: 91.9%
- viability, T/C [27]: 86.3%
- viability, T/C [28]: 74.7%
- viability, T/C [29]: 2.48%
- viability, T/C [30]: 0.97%
- viability, T/C [31]: 86.2%
- viability, T/C [32]: 80.6%
- viability, T/C [33]: 94.8%
- viability, T/C [34]: 72.5%
- viability, T/C [35]: 1.96%
- viability, T/C [36]: 1.06%
